In series [1] the target is T1, human NPFFR1 (hNPFFR1) receptor (Homo sapiens, UniProt Q9GZQ6).
T1 construct: expressed in transfected cells; host or cells: HEK-293 T cells, transient co-transfection with polyethylenimine
Briefly: Human NPFFR1 evaluation using BRET biosensors (antagonist IC50). The format is cell-based. The settings on record: hNPFFR1 transiently over-expressed in HEK-293 T cells; BRET signal; stimulation by EC80 RFRP-3. Here is the method:
Compounds of the present invention were tested successively for their agonist and antagonist activities on human NPFFR1 (hNPFFR1) receptor transiently over-expressed in HEK-293 T cells. Compounds exert agonist activity if, by themselves in absence of neuropeptide RFRP-3 (also named NPVF) they activate hNPFFR1; and they exert antagonist activity if they decrease the action of RFRP-3 on the receptor.
The assay used to measure compound activity is based on BRET (Bioluminescence Resonance Energy Transfer) biosensors and is designed to monitor the plasma membrane translocation of protein that interacts with specific Ga subunit. The specific effector (luciferase tagged: BRET donor) recruited at the membrane will be in close proximity to a plasma membrane anchor (GFP tagged: BRET acceptor) to induce a BRET signal. Biosensors are described in the patent application WO 2016/041093 A1 (Biosensors for monitoring biomolecule localization and trafficking in cells).
HEK-293 T cells are maintained in Dulbecco's Modified Eagle's Medium supplemented with 10% Foetal Calf Serum, 1% Penicillin/Streptomycin at 37° C./5% CO2.
Cells are co-transfected using polyethylenimine (25 kDa linear) with four DNA plasmids encoding: hNPFFR1, GαoB, a Gi family specific intracellular effector fused to luciferase (BRET donor), a plasma membrane effector fused to GFP (BRET acceptor). After transfection, cells are cultured for 48 h at 37° C./5% CO2.
Receptor activity is detected by changes in BRET signal.
On the day of the assay, cells are detached using trypsin 0.05%, resuspended in assay buffer (1.8 mM CaCl2, 1 mM MgCl2, 2.7 mM KCl, 137 mM NaCl, 0.4 mM NaH2PO4, 5.5 mM D-Glucose, 11.9 mM NaHCO3, 25 mM Hepes) and seeded in 384 well plate at a density of 20,000 cells per well. Then, plates are equilibrated 3.5 hours at 37° C. before adding compounds.
Compounds and luciferase substrate are added to the cells using an automated device (Freedom Evo®, Tecan) and BRET readings are collected on EnVision (PerkinElmer) with specific filters (410 nm BW 80 nm, 515 nm BW 30 nm).
Agonist and antagonist activities of compounds are consecutively evaluated on the same cell plate. Agonist activity is first measured after 10 minutes incubation with compound alone on the cells. Then, cells are stimulated by an EC80 RFRP-3 concentration and luminescence is recorded for additional 10 minutes. EC80 RFRP-3 concentration is the concentration giving 80% of the maximal RFRP-3 response. Agonist or antagonist activities are evaluated in comparison to basal signals evoked by assay buffer or EC80 RFRP-3 alone, respectively.
For IC50 determination, a dose-response test is performed using 20 concentrations (ranging over 6 logs) of each compound. Dose-response curves are fitted using the sigmoidal dose-response (variable slope) analysis in GraphPad Prism software (GraphPad Software) and IC50 of antagonist activity is calculated. Dose-response experiments are performed in duplicate, in two independent experiments.
Background: In BRET a luciferase serves as donor, and the signal depends on an acceptor being close.

T1 sequence (Q9GZQ6 whole entry): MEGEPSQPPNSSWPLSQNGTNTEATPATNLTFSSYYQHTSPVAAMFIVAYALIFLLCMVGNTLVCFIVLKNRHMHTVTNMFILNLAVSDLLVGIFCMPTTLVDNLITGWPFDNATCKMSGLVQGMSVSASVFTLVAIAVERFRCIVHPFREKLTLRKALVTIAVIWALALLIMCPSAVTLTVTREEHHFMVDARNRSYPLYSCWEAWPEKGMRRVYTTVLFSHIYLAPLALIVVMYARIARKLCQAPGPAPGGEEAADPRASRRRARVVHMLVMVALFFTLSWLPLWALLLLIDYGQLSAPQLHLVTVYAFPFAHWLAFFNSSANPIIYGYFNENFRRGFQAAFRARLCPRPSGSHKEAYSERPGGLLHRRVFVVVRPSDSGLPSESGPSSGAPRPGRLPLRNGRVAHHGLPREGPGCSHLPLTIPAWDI

In general, melting point refers to the temperature of the solid-liquid transition. What is called IC50 is the concentration at which inhibition is half-maximal. As to `CCc1nc(N)ccc1-c1csc2ccc(C)cc12.Cl` [Example 42, 6-Ethyl-5-(5-methylbenzothiophen-3-yl)pyridin-2-amine], the melting point lay within 64 to 88 °C. Besides, the IC50 in series [1] is 100 to 1000 nM.
Taken in the same sequence, the figures for `CCc1nc(N)ccc1-c1cccc2c1NCCC2.Cl` [Example 106, 6-ethyl-5-(1,2,3,4-tetrahydroquinolin-8-yl)pyridin-2-amine] were 147 to 160 °C and 100 to 1000 nM.
Taken in the same sequence, the figures for `Cl.Nc1ccc(-c2cccc3cccnc23)c(C2CC2)n1` [Example 14, 6-Cyclopropyl-5-(8-quinolyl)pyridin-2-amine] were above 250 °C and 100 to 1000 nM.
Take `CCc1nc(N)ccc1-c1cccc2cc3c(nc12)CCC3.Cl` [Example 115, 5-(2,3-dihydro-1H-cyclopenta[b]quinolin-5-yl)-6-ethylpyridin-2-amine]: the melting point lay in the range of 153 to 169 °C. Besides, the IC50 in series [1] is below 100 nM.
Taken in the same sequence, the figures for `CCc1nc(N)ccc1-c1c(F)c(F)cc2cc(F)cnc12.Cl` [Example 150, 6-ethyl-5-(3,6,7-trifluoroquinolin-8-yl)pyridin-2-amine] were 120 to 130 °C and below 100 nM.
Compound `Cl.Nc1ccc(-c2c(F)ccc3cccnc23)c(N)n1` [Example 57, 3-(7-fluoroquinolin-8-yl)pyridine-2,6-diamine] gave a melting point of 190 to 220 °C. The same compound showed an IC50 in series [1] below 100 nM.
On the same counts, the results for `CCc1nc(N)ccc1-c1cccc2cc3c(nc12)CCN(C)C3.Cl.Cl` [Example 114, 6-ethyl-5-(2-methyl-1,2,3,4-tetrahydrobenzo[b][1,6]naphthyridin-6-yl)pyridin-2-amine] are 197 to 211 °C and 100 to 1000 nM.
In turn, `CCc1nc(N)ccc1-c1cccc2ccc(C(=O)N3CCOCC3)nc12.Cl` [Example 166, (8-(6-amino-2-ethylpyridin-3-yl)quinolin-2-yl)(morpholino)methanone] had a melting point of 130 to 135 °C. The IC50 in series [1] is below 100 nM.
Regarding `CCc1nc(N)ccc1-c1cccc2ccc(-c3ccccn3)nc12.Cl` [Example 119, 6-ethyl-5-(2-(pyridin-2-yl)quinolin-8-yl)pyridin-2-amine], the melting point was in the range of 111 to 116 °C. Also, the IC50 in series [1] is below 100 nM.
In turn, `CCc1nc(N)ccc1-c1cccc2nccnc12.Cl` [Example 101, 6-ethyl-5-(quinoxalin-5-yl)pyridin-2-amine] registered a melting point above 250 °C. Also, the IC50 in series [1] lay within 100 to 1000 nM.
Compound `CC(C)(C)OC(=O)n1cc(-c2ccc(N)nc2N)c2ccccc21` [Example 17, Tert-butyl 3-(2,6-diamino-3-pyridyl)indole-1-carboxylate] came in with a melting point of 150 to 154 °C. In addition, in series [1], the IC50 is above 1000 nM.
On to `Cl.Nc1ccc(-c2c(F)c(F)cc3ccc(O)nc23)c(N)n1` [Example 64, 8-(2,6-diaminopyridin-3-yl)-6,7-difluoroquinolin-2-ol], for which the melting point was above 250 °C. Also, the IC50 in series [1] was below 100 nM.
Taken in the same sequence, the figures for `Cl.Nc1ccc(-c2cccc3cccnc23)c(F)n1` [Example 2, 6-Fluoro-5-quinolin-8-yl-pyridin-2-ylamine] were above 250 °C and above 1000 nM.
Taken in the same sequence, the figures for `CC(C)c1nc(N)ccc1-c1cccc2cccnc12.Cl` [Example 11, 6-Isopropyl-5-(8-quinolyl)pyridin-2-amine] were above 250 °C and below 100 nM.
`CCc1nc(N)ccc1-c1cccc2ccc(C(=O)N3CCCC3)nc12.Cl` [Example 141, (8-(6-amino-2-ethylpyridin-3-yl)quinolin-2-yl)(pyrrolidin-1-yl)methanone] yielded a melting point of 100 to 125 °C. For the same compound, the IC50 in series [1] was below 100 nM.
On the same counts, the results for `Cl.Cn1nccc1-c1ccccc1-c1ccc(N)nc1N` [Example 48, 3-(2-(1-methyl-1H-pyrazol-5-yl)phenyl)pyridine-2,6-diamine] are above 250 °C and above 1000 nM.
On the same counts, the results for `CCc1nc(N)ccc1-c1c(F)cc(F)c2ccc(=O)[nH]c12.Cl` [Example 159, 8-(6-amino-2-ethylpyridin-3-yl)-5,7-difluoroquinolin-2(1H)-one] are above 250 °C and 100 to 1000 nM.
Turning to `CCc1nc(N)ccc1-c1c(C)ccc2cccnc12.Cl` [Example 93, 6-ethyl-5-(7-methylquinolin-8-yl)pyridin-2-amine], the melting point was in the range of 90 to 130 °C. The compound further returned an IC50 in series [1] below 100 nM.
Taken in the same sequence, the figures for `CCc1nc(N)ccc1-c1csc2cc(OC)ccc12` [Example 5, 6-Ethyl-5-(6-methoxybenzothiophen-3-yl)pyridin-2-amine] were 151 to 155 °C and above 1000 nM.
As for `CCCc1nc(N)ccc1-c1cccc2ccncc12.Cl` [Example 9, 5-(8-Isoquinolyl)-6-propyl-pyridin-2-amine], the melting point fell in the range of 100 to 117 °C. This compound showed an IC50 in series [1] below 100 nM.
Taken in the same sequence, the figures for `Cl.Cn1ncc2cccc(-c3ccc(N)nc3N)c21` [Example 26, 3-(1-Methylindazol-7-yl)pyridine-2,6-diamine] were 198 to 204 °C and 100 to 1000 nM.
Take `CCc1nc(N)ccc1-c1cccc2ccncc12.Cl` [Example 6, 6-Ethyl-5-(8-isoquinolyl)pyridin-2-amine]: the melting point was above 250 °C. This compound came in with an IC50 in series [1] below 100 nM.
On the same counts, the results for `CCc1nc(N)ccc1-c1cccc2ccc(N3CCCC3)nc12.Cl` [Example 131, 6-ethyl-5-(2-(pyrrolidin-1-yl)quinolin-8-yl)pyridin-2-amine] are above 250 °C and 100 to 1000 nM.
The compound `CCc1nc(N)ccc1-c1cccc2ccc(-c3ccc4nccn4c3)nc12.Cl` [Example 123, 6-ethyl-5-(2-(imidazo[1,2-a]pyridin-6-yl)quinolin-8-yl)pyridin-2-amine] had a melting point of 70 to 75 °C. The IC50 in series [1] was below 100 nM.
In turn, `CCc1nc(N)ccc1-c1cccc2ccc(C(=O)N(CC)C(C)C)nc12.Cl` [Example 170, 8-(6-amino-2-ethylpyridin-3-yl)-N-ethyl-N-isopropylquinoline-2-carboxamide] gave a melting point of 121 to 125 °C. Moreover, the IC50 in series [1] was below 100 nM.
On the same counts, the results for `CCc1nc(N)ccc1-c1cccc2c1NC(=O)CC2.Cl` [Example 155, 8-(6-amino-2-ethylpyridin-3-yl)-3,4-dihydroquinolin-2(1H)-one] are 233 to 237 °C and 100 to 1000 nM.
Consider `CCc1nc(N)ccc1-c1cccc2ccc(C)nc12.Cl` [Example 90, 6-ethyl-5-(2-methylquinolin-8-yl)pyridin-2-amine], for which the melting point was 110 to 150 °C. In series [1], this compound yielded an IC50 below 100 nM.
On the same counts, the results for `CCc1nc(N)ccc1-c1cccc2cccnc12.Cl` [Example 47, 6-ethyl-5-(quinolin-8-yl)pyridin-2-amine] are above 250 °C and below 100 nM.
As for `CCc1nc(N)ccc1-c1c(F)ccc2c1OCC=CC2.Cl` [Example 178, 6-ethyl-5-(8-fluoro-2,5-dihydrobenzo[b]oxepin-9-yl)pyridin-2-amine], the melting point was in the range of 43 to 52 °C. The compound further gave an IC50 in series [1] below 100 nM.
In turn, `Cc1cc(-c2ccc(N)nc2N)c2ncccc2c1.Cl` [Example 53, 3-(6-methylquinolin-8-yl)pyridine-2,6-diamine] displayed a melting point of 180 to 200 °C. In series [1], this compound came in with an IC50 below 100 nM.
On the same counts, the results for `Cl.Nc1ccc(-c2c(F)ccc3cccnc23)c(CCCC(F)(F)F)n1` [Example 71, 5-(7-fluoroquinolin-8-yl)-6-(4,4,4-trifluorobutyl)pyridin-2-amine] are 70 to 130 °C and below 100 nM.

The values above are taken from US20220298135A1, “5-HETEROARYL-PYRIDIN-2-AMINE COMPOUNDS AS NEUROPEPTIDE FF RECEPTOR ANTAGONISTS” (Domain Therapeutics, priority 2019, published 2022).
